Assay results reported in patent US20110053773A1, “METHODS OF IMPROVING NUTRITIONAL VALUE OF PLANTS” (UNIVERSITY OF TENNESSEE RESEARCH FOUNDATION, priority 2009, published 2011).

How the values were obtained:
'Riviera' bermudagrass = assay: Leaf tissue pigment concentrations of bermudagrass after mesotrione (Example 5, Table 16); format: in vivo, Cynodon dactylon (L.) Pers.; details: for Blade tissue pigments: Beta-carotene / Blade tissue pigments: Lutein / Blade tissue pigments: Phytoene / Blade tissue pigments: Total Carotenoids / Blade tissue pigments: Violaxanthin / Blade tissue pigments: Zeaxanthin: 0.28 kg ai×ha^−1
Text: Greenhouse and laboratory studies were initiated with ‘Riviera’ bermudagrass (Cynodon dactylon (L.) Pers.) treated postemergence with mesotrione at 0.28 kg×ha^−1 and sampled for tissue pigment concentrations at 0, 3, 7, 14, 21, 28 and 35 days after treatment (DAT; Table 16). […] Due to the antioxidant activity of these carotenoid pigments, these increases should improve bermudagrass stress tolerance (Kopsell et al., 2010).

[1] = system: sweet corn cultivars 'Merit', 'Temptation', 'Incredible'; assay: Kernel carotenoids of sweet corn after mesotrione and atrazine (Example 3); format: in vivo; set-up: Kernel carotenoids: Lutein / Kernel carotenoids: Zeaxanthin: unit not given here; details: mesotrione 105, atrazine 560 g ai/ha
Description: Studies were conducted in a field in Knoxville, Tenn. to ascertain the growth, stress tolerance and nutritional quality differences following postemergence applications of herbicides mesotrione and atrazine, alone and in mixtures together, on the young sweet corn cultivars: ‘Merit’ (yellow-kernel sensitive genotype), ‘Temptation’ (bicolor tolerant genotype), and ‘Incredible’ (yellow-kernel moderately sensitive genotype).
Herbicide treatments were applied as follows: 1) untreated control; 2) mesotrione (meso) at 105 g ai/ha EPOST; 3) mesotrione at 105+atrazine at 560 g ai/ha EPOST; 4) atrazine at 560 g ai/ha EPOST; 5) mesotrione at 105 g ai/ha LPOST; 6) mesotrione at 105+atrazine at 560 g ai/ha LPOST; and 7) atrazine at 560 g ai/ha LPOST. Visual ratings of plant growth were taken during season, and kernels for carotenoids were measured at harvest.

[2] = 'Incredible' moderately sensitive genotype, EPOST
[3] = 'Incredible' moderately sensitive genotype, LPOST
[4] = 'Merit' sensitive genotype, EPOST
[5] = 'Merit' sensitive genotype, LPOST

SMILES: CS(=O)(=O)c1ccc(C(=O)C2C(=O)CCCC2=O)c([N+](=O)[O-])c1 [Mesotrione*CALLISTO, mesotrione]
- Blade tissue pigments: Beta-carotene ('Riviera' bermudagrass; 0 days after treatment): 17.2 mg/100 g fresh weight
- Blade tissue pigments: Lutein ('Riviera' bermudagrass; 0 days after treatment): 23.6 mg/100 g fresh weight
- Blade tissue pigments: Phytoene ('Riviera' bermudagrass; 0 days after treatment): 0.0 mg/100 g fresh weight
- Blade tissue pigments: Total Carotenoids ('Riviera' bermudagrass; 0 days after treatment): 57.5 mg/100 g fresh weight
- Blade tissue pigments: Violaxanthin ('Riviera' bermudagrass; 0 days after treatment): 6.9 mg/100 g fresh weight
- Blade tissue pigments: Zeaxanthin ('Riviera' bermudagrass; 0 days after treatment): 3.2 mg/100 g fresh weight
- Blade tissue pigments: Beta-carotene ('Riviera' bermudagrass; 3 days after treatment): 11.6 mg/100 g fresh weight
- Blade tissue pigments: Lutein ('Riviera' bermudagrass; 3 days after treatment): 14.8 mg/100 g fresh weight
- Blade tissue pigments: Phytoene ('Riviera' bermudagrass; 3 days after treatment): 37.5 mg/100 g fresh weight
- Blade tissue pigments: Total Carotenoids ('Riviera' bermudagrass; 3 days after treatment): 42.9 mg/100 g fresh weight
- Blade tissue pigments: Violaxanthin ('Riviera' bermudagrass; 3 days after treatment): 1.6 mg/100 g fresh weight
- Blade tissue pigments: Zeaxanthin ('Riviera' bermudagrass; 3 days after treatment): 3.1 mg/100 g fresh weight
- Blade tissue pigments: Beta-carotene ('Riviera' bermudagrass; 7 days after treatment): 7.4 mg/100 g fresh weight
- Blade tissue pigments: Lutein ('Riviera' bermudagrass; 7 days after treatment): 14.1 mg/100 g fresh weight
- Blade tissue pigments: Phytoene ('Riviera' bermudagrass; 7 days after treatment): 38.0 mg/100 g fresh weight
- Blade tissue pigments: Total Carotenoids ('Riviera' bermudagrass; 7 days after treatment): 35.6 mg/100 g fresh weight
- Blade tissue pigments: Violaxanthin ('Riviera' bermudagrass; 7 days after treatment): 1.6 mg/100 g fresh weight
- Blade tissue pigments: Zeaxanthin ('Riviera' bermudagrass; 7 days after treatment): 3.3 mg/100 g fresh weight
- Blade tissue pigments: Beta-carotene ('Riviera' bermudagrass; 14 days after treatment): 7.6 mg/100 g fresh weight
- Blade tissue pigments: Lutein ('Riviera' bermudagrass; 14 days after treatment): 16.4 mg/100 g fresh weight
- Blade tissue pigments: Phytoene ('Riviera' bermudagrass; 14 days after treatment): 11.7 mg/100 g fresh weight
- Blade tissue pigments: Total Carotenoids ('Riviera' bermudagrass; 14 days after treatment): 47.2 mg/100 g fresh weight
- Blade tissue pigments: Violaxanthin ('Riviera' bermudagrass; 14 days after treatment): 3.5 mg/100 g fresh weight
- Blade tissue pigments: Zeaxanthin ('Riviera' bermudagrass; 14 days after treatment): 3.8 mg/100 g fresh weight
- Blade tissue pigments: Beta-carotene ('Riviera' bermudagrass; 21 days after treatment): 11.4 mg/100 g fresh weight
- Blade tissue pigments: Lutein ('Riviera' bermudagrass; 21 days after treatment): 21.2 mg/100 g fresh weight
- Blade tissue pigments: Phytoene ('Riviera' bermudagrass; 21 days after treatment): 0.0 mg/100 g fresh weight
- Blade tissue pigments: Total Carotenoids ('Riviera' bermudagrass; 21 days after treatment): 60.1 mg/100 g fresh weight
- Blade tissue pigments: Violaxanthin ('Riviera' bermudagrass; 21 days after treatment): 4.0 mg/100 g fresh weight
- Blade tissue pigments: Zeaxanthin ('Riviera' bermudagrass; 21 days after treatment): 4.7 mg/100 g fresh weight
- Blade tissue pigments: Beta-carotene ('Riviera' bermudagrass; 28 days after treatment): 18.9 mg/100 g fresh weight
- Blade tissue pigments: Lutein ('Riviera' bermudagrass; 28 days after treatment): 32.1 mg/100 g fresh weight
- Blade tissue pigments: Phytoene ('Riviera' bermudagrass; 28 days after treatment): 0.0 mg/100 g fresh weight
- Blade tissue pigments: Total Carotenoids ('Riviera' bermudagrass; 28 days after treatment): 77.2 mg/100 g fresh weight
- Blade tissue pigments: Violaxanthin ('Riviera' bermudagrass; 28 days after treatment): 2.8 mg/100 g fresh weight
- Blade tissue pigments: Zeaxanthin ('Riviera' bermudagrass; 28 days after treatment): 5.7 mg/100 g fresh weight
- Blade tissue pigments: Beta-carotene ('Riviera' bermudagrass; 35 days after treatment): 21.2 mg/100 g fresh weight
- Blade tissue pigments: Lutein ('Riviera' bermudagrass; 35 days after treatment): 37.1 mg/100 g fresh weight
- Blade tissue pigments: Phytoene ('Riviera' bermudagrass; 35 days after treatment): 0.0 mg/100 g fresh weight
- Blade tissue pigments: Total Carotenoids ('Riviera' bermudagrass; 35 days after treatment): 92.7 mg/100 g fresh weight
- Blade tissue pigments: Violaxanthin ('Riviera' bermudagrass; 35 days after treatment): 6.8 mg/100 g fresh weight
- Blade tissue pigments: Zeaxanthin ('Riviera' bermudagrass; 35 days after treatment): 6.4 mg/100 g fresh weight
- pigments in treated plants ('Riviera' bermudagrass; 0.28 kg/ha postemergence, after initial decrease with tissue whitening): most recovered to untreated levels by 21 DAT
- lutein, β-carotene, and zeaxanthin versus untreated control plants ('Riviera' bermudagrass; 0.28 kg/ha postemergence, at 35 DAT): accumulated to levels exceeding untreated control plants
- phytoene detection ('Riviera' bermudagrass; 0.28 kg/ha postemergence, sampled 0 to 35 DAT): only detected in mesotrione treated plants at 3, 7, and 14 DAT
- Lutein % change from untreated control [1, 2]: −6.4%
- Zeaxanthin % change from untreated control [1, 2]: −7.4%
- Kernel carotenoids: Lutein ([1]; 'Incredible' moderately sensitive genotype, EPOST, untreated 0.328): 0.307
- Kernel carotenoids: Zeaxanthin ([1]; 'Incredible' moderately sensitive genotype, EPOST, untreated 0.448): 0.415
- Lutein % change from untreated control [1, 3]: +4.6%
- Zeaxanthin % change from untreated control [1, 3]: +1.3%
- Kernel carotenoids: Lutein ([1]; 'Incredible' moderately sensitive genotype, LPOST, untreated 0.328): 0.343
- Kernel carotenoids: Zeaxanthin ([1]; 'Incredible' moderately sensitive genotype, LPOST, untreated 0.448): 0.454
- Lutein % change from untreated control [1, 4]: +7.8%
- Zeaxanthin % change from untreated control [1, 4]: +12.0%
- Kernel carotenoids: Zeaxanthin ([1]; 'Merit' sensitive genotype, EPOST, untreated 0.509): 0.570
- Kernel carotenoids: Lutein [1, 5]: 0.577
- Lutein % change from untreated control [1, 5]: +8.7%
- Zeaxanthin % change from untreated control [1, 5]: −3.7%
- Kernel carotenoids: Zeaxanthin ([1]; 'Merit' sensitive genotype, LPOST, untreated 0.509): 0.409
